Data taken from ChEMBL document CHEMBL5233204, “Expanding the repertoire of methanocarba nucleosides from purinergic signaling to diverse targets” (RSC Med Chem, 2021).
Values belong to the compound of their own block, whether it stands above or below them.

Experiments:
[1] = molecular target: T1, 5-hydroxytryptamine receptor 2C (Homo sapiens, UniProt P28335); test: Binding affinity to 5HT2C receptor (unknown origin) assessed as inhibition constant
T1 sequence (P28335 whole entry): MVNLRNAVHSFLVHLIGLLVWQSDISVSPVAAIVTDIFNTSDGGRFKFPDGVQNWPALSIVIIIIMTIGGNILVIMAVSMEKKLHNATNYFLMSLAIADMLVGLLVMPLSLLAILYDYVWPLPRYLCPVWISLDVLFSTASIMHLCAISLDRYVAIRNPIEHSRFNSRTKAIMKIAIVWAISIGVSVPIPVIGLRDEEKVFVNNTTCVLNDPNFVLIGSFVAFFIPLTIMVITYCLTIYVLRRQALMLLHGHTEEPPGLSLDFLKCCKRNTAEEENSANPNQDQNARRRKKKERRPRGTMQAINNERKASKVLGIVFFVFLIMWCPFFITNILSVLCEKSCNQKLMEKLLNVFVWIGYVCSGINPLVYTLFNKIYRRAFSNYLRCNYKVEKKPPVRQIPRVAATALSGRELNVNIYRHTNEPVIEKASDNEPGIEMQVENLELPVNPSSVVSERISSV

[2] = molecular target: 5-hydroxytryptamine receptor 2B (Homo sapiens, UniProt P41595); test: Binding affinity to 5HT2B receptor (unknown origin) assessed as inhibition constant
Sequence of 5-hydroxytryptamine receptor 2B (P41595 whole entry): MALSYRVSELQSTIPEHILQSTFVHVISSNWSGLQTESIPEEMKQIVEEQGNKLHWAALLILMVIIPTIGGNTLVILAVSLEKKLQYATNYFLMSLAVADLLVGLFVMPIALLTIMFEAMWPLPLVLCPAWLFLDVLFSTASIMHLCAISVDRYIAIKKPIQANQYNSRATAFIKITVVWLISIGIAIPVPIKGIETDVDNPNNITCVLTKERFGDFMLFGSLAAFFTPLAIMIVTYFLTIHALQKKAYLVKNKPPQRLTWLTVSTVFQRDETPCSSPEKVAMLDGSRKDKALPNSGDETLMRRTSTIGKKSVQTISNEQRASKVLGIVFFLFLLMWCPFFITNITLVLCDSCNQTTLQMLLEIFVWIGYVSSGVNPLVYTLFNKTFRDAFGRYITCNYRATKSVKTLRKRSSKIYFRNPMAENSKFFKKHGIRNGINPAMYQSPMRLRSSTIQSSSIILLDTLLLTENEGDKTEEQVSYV

[3] = molecular target: 5-hydroxytryptamine receptor 2A (Homo sapiens, UniProt P28223); test: Binding affinity to 5HT2A receptor (unknown origin) assessed as inhibition constant
Sequence of 5-hydroxytryptamine receptor 2A (P28223 whole entry): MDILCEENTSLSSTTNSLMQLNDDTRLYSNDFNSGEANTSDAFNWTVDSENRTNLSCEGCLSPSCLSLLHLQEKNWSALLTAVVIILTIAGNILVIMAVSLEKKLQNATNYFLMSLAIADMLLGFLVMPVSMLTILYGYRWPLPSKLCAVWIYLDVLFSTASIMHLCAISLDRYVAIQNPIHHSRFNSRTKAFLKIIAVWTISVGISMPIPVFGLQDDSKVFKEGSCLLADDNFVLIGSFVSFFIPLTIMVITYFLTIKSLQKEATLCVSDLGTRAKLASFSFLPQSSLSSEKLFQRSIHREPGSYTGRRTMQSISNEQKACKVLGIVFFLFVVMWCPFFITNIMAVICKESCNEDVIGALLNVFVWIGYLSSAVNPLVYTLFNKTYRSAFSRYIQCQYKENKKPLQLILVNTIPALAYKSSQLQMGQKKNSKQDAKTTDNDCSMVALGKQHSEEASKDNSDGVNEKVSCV

P2Y purinoceptor 1 [4] = molecular target: T2, P2Y purinoceptor 1 (Homo sapiens, UniProt P47900); test: Agonist activity at human P2Y1R in human 1321N1 cells assessed as efficacy relative to control; format: cell-based
T2 sequence (P47900 whole entry): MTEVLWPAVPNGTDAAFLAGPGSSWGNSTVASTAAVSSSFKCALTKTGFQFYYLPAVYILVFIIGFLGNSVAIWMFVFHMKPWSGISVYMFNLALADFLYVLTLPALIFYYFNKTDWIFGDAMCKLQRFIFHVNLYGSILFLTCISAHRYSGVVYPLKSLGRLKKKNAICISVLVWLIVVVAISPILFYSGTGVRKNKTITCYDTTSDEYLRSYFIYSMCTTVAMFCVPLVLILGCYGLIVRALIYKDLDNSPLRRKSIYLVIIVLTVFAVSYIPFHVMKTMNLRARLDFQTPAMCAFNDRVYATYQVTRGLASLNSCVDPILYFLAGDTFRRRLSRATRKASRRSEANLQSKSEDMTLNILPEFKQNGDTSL

P2Y purinoceptor 1 [5] = molecular target: T2, P2Y purinoceptor 1; test: Agonist activity at human P2Y1R in human 1321N1 cells; format: cell-based
[6] = Inhibition of S-adenosyl homocysteine hydrolase (unknown origin) relative to control; conditions: Homo sapiens; concentration not given here
P2Y purinoceptor 6 = P2Y purinoceptor 6 (Mus musculus, UniProt Q9ERK9); test: Agonist activity at P2Y6R in mouse adipose tissue; format: tissue-based
Sequence of P2Y purinoceptor 6 (Q9ERK9 whole entry): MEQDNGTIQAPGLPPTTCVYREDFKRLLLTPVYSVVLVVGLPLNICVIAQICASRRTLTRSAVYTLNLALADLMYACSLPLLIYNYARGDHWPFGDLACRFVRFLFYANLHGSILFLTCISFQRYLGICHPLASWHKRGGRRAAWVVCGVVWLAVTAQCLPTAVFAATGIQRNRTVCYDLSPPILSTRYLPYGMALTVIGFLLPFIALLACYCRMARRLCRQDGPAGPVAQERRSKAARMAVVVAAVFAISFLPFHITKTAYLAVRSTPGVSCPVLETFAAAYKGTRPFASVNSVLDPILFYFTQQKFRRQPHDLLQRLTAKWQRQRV

Adenosine receptor A2b = Adenosine receptor A2b (Homo sapiens, UniProt P29275); test: Binding affinity to human adenosine A2B receptor assessed as inhibition constant
Sequence of Adenosine receptor A2b (P29275 whole entry): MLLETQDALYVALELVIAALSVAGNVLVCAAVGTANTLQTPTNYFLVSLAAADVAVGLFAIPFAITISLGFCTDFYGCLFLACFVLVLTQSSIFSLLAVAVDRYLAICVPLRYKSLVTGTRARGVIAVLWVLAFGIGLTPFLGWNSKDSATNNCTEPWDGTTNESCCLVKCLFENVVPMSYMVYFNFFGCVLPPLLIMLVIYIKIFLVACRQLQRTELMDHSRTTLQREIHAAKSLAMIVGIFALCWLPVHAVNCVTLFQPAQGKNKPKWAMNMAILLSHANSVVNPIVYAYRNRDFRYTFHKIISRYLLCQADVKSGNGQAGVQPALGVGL

Adenosine receptor A1 [7] = molecular target: Adenosine receptor A1 (Rattus norvegicus, UniProt P25099); test: Binding affinity to rat adenosine A1 receptor assessed as inhibition constant
Sequence of Adenosine receptor A1 (Rattus norvegicus, UniProt P25099) (P25099 whole entry): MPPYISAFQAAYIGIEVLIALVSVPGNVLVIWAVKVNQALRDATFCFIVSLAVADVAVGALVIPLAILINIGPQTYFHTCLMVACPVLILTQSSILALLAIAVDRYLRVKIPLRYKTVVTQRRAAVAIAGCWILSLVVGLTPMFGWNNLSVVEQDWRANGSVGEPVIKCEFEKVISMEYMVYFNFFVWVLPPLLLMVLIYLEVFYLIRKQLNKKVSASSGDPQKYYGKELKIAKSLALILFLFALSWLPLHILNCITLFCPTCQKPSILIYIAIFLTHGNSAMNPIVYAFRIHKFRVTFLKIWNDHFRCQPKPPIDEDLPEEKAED

Adenosine receptor A2a = Adenosine receptor A2a (Homo sapiens, UniProt P29274); test: Binding affinity to human adenosine A2A receptor assessed as inhibition constant
Sequence of Adenosine receptor A2a (P29274 whole entry): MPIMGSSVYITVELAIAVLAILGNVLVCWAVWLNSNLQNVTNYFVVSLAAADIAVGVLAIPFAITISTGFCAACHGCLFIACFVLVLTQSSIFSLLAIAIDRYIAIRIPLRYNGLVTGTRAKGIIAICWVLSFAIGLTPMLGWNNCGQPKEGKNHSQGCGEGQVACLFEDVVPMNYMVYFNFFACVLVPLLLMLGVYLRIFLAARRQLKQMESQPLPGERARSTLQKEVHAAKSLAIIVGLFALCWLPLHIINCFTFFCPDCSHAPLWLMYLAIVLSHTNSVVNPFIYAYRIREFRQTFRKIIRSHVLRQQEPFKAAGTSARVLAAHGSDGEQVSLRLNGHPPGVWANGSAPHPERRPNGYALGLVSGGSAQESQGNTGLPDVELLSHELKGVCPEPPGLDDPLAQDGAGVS

Adenosine receptor A3 [8] = molecular target: T3, Adenosine receptor A3 (Mus musculus, UniProt Q61618); test: Binding affinity to mouse adenosine A3 receptor assessed as inhibition constant
T3 sequence (Q61618 whole entry): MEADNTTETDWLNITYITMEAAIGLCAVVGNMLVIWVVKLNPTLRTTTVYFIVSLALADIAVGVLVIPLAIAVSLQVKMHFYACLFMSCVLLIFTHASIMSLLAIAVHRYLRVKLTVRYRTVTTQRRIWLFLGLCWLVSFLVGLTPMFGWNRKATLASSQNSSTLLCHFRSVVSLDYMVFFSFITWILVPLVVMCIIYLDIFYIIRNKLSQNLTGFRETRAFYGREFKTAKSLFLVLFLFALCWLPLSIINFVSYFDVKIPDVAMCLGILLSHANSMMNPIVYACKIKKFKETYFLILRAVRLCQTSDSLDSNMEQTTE

Adenosine receptor A1 [9] = molecular target: Adenosine receptor A1 (Homo sapiens, UniProt P30542); test: Binding affinity to human adenosine A1 receptor assessed as inhibition constant
Sequence of Adenosine receptor A1 (Homo sapiens, UniProt P30542) (P30542 whole entry): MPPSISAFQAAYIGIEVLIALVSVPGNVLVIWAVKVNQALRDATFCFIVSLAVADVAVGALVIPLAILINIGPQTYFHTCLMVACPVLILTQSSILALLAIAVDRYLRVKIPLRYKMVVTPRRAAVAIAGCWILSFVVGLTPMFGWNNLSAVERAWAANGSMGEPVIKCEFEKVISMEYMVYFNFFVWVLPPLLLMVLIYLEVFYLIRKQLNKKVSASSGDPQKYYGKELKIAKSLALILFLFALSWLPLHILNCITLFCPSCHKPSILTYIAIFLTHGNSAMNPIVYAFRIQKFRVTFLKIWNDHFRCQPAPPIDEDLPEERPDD

[10] = molecular target: T4, Sodium/nucleoside cotransporter 2 (Homo sapiens, UniProt O43868); test: Inhibition of human CNT2
T4 sequence (O43868 whole entry): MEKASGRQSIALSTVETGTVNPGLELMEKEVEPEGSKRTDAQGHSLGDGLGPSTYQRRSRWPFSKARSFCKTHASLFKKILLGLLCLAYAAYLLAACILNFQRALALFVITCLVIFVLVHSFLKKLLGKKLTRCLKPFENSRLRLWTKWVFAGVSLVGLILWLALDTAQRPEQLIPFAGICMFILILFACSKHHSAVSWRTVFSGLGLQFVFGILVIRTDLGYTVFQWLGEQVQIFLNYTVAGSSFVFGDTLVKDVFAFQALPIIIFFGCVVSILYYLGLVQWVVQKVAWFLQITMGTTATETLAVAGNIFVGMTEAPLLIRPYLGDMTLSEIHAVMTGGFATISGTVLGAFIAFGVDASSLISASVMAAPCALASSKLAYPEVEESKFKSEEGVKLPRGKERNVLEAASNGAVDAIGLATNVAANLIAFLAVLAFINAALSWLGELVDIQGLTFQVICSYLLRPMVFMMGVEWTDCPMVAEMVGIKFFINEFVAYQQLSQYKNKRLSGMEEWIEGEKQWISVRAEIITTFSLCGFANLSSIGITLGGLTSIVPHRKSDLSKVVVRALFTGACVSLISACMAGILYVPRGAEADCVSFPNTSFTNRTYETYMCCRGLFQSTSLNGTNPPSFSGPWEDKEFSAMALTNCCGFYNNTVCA

[11] = molecular target: T5, Equilibrative nucleoside transporter 1 (Homo sapiens, UniProt Q99808); test: Inhibition of human recombinant ENT1 assessed as inhibition of [3H] uridine transport
T5 sequence (Q99808 whole entry): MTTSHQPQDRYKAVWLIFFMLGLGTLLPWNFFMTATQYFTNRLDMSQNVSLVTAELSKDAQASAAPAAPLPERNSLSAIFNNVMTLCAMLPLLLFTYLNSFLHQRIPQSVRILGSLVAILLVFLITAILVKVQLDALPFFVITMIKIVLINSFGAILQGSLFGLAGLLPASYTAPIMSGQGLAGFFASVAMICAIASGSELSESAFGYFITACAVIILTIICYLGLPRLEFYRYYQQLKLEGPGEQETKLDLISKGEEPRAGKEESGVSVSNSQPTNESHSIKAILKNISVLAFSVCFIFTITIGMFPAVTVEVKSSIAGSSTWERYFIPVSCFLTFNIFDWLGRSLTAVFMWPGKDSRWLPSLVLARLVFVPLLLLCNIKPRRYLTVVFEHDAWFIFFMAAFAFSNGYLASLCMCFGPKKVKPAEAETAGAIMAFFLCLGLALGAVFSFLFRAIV

[12] = molecular target: T6, Sodium/nucleoside cotransporter 1 (Homo sapiens, UniProt O00337); test: Inhibition of human CNT1
T6 sequence (O00337 whole entry): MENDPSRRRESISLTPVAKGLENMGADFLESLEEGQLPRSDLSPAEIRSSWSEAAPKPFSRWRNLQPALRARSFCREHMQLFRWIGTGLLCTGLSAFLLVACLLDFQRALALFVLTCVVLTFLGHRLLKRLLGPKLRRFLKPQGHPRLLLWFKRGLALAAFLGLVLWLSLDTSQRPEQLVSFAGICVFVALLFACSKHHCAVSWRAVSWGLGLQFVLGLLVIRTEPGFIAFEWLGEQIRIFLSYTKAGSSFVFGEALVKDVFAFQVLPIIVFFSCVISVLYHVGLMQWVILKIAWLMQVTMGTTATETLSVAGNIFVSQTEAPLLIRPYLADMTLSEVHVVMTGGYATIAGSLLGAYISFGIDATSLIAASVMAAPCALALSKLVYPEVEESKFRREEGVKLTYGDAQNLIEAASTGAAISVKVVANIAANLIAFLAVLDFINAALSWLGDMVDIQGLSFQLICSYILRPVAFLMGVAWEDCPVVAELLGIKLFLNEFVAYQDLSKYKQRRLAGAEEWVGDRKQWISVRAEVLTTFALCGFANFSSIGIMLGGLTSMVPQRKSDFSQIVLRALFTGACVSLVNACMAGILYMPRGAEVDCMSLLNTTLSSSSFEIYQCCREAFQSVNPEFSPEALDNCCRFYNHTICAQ

[13] = molecular target: T5, Equilibrative nucleoside transporter 1; test: Inhibition of ENT1 (unknown origin)
[14] = molecular target: Delta-type opioid receptor (Homo sapiens, UniProt P41143); test: Binding affinity to DOR (unknown origin)
Sequence of Delta-type opioid receptor (P41143 whole entry): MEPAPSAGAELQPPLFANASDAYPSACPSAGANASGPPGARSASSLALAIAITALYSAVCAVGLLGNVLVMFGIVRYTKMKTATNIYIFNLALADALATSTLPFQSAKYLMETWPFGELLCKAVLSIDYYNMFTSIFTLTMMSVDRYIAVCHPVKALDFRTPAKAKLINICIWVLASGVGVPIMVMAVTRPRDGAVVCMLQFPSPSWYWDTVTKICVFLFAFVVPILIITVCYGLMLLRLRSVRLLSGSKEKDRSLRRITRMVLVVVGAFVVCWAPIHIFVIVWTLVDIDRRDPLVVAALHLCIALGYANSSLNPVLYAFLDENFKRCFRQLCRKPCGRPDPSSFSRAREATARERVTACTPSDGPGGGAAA

[15] = molecular target: T7, Kappa-type opioid receptor (Homo sapiens, UniProt P41145); test: Binding affinity to KOR (unknown origin)
T7 sequence (P41145 whole entry): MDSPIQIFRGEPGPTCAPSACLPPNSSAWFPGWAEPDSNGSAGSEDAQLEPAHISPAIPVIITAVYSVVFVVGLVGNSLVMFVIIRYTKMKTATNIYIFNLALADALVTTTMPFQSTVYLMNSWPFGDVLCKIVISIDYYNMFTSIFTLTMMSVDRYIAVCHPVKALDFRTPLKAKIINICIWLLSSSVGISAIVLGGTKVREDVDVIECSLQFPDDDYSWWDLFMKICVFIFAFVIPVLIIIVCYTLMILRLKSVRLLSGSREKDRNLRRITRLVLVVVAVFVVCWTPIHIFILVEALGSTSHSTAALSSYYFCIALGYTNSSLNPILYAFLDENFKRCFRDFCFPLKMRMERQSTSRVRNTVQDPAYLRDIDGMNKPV

Adenosine receptor A3 [16] = molecular target: T8, Adenosine receptor A3 (Homo sapiens, UniProt P0DMS8); test: Binding affinity to human adenosine A3 receptor assessed as inhibition constant
T8 sequence (P0DMS8 whole entry): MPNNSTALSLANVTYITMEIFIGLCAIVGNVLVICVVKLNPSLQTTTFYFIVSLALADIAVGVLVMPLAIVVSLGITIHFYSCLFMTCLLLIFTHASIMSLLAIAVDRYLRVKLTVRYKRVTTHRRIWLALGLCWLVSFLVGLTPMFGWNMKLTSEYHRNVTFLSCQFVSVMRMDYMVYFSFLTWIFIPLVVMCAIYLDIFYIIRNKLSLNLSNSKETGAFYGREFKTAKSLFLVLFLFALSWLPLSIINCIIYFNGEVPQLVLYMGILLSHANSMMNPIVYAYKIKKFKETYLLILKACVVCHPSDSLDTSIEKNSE

Mu-type opioid receptor = Mu-type opioid receptor (Homo sapiens, UniProt P35372); test: Binding affinity to MOR (unknown origin)
Sequence of Mu-type opioid receptor (P35372 whole entry, the tested form may be a part): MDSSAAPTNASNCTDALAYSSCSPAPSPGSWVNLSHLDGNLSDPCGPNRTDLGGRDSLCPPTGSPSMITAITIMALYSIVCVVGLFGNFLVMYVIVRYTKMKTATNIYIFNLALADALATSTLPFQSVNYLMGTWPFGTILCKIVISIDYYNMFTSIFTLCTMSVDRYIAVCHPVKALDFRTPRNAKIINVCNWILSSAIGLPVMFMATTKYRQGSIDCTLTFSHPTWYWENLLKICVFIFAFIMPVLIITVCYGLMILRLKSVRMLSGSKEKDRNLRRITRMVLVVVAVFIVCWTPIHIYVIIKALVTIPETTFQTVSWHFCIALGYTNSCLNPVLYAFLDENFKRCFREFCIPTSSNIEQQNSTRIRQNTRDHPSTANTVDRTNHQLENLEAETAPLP

[17] = molecular target: T7, Kappa-type opioid receptor; test: Activation of human KOR assessed as beta-arrestin 2 recruitment at 30 uM by PathHunter enzyme fragment complementation assay relative to control

SMILES: CNC(=O)[C@]12C[C@@H]1[C@@H](n1cnc3c(NC(C4CC4)C4CC4)nc(Cl)nc31)[C@H](O)[C@@H]2O
Ki [1]: 0.269 µM
Ki [2]: 0.023 µM
Ki [3]: > 10 µM

Efficacy (P2Y purinoceptor 1 [4]; filed as agonist): 50%
EC50 (P2Y purinoceptor 1 [5]): 18.9 µM
SMILES: Nc1ncnc2c1ncn2[C@]12C[C@H](OP(=O)(O)O)[C@@H](COP(=O)(O)O)[C@@H]1C2

inhibition [6]: 30%
SMILES: Nc1ncnc2c1ncn2[C@@H]1C=C(CO)[C@@H](O)[C@H]1O

EC50 (P2Y purinoceptor 6): 0.1 µM
SMILES: CO/N=c1\ccn([C@]23C[C@H]2[C@@H](COP(=O)(O)OP(=O)(O)O)[C@@H](O)[C@H]3O)c(=O)[nH]1

Ki (Adenosine receptor A2b): > 50 µM
Ki (Adenosine receptor A1 [7]): > 100 µM
Ki (Adenosine receptor A2a): > 100 µM
SMILES: Nc1ncnc2c1ncn2[C@@]12C[C@H]1[C@H](CO)[C@@H](O)[C@H]2O (racemic)

Ki (Adenosine receptor A3 [8]): > 10 µM
SMILES: CNC(=O)[C@]12C[C@@H]1[C@@H](n1cnc3c(NC)nc(C#Cc4ccc(Cl)s4)cc31)[C@H](O)[C@@H]2O

Ki (Adenosine receptor A1 [9]): > 10 µM
SMILES: CCCNc1nc(C#Cc2ccc(Cl)s2)nc2c1ncn2[C@H]1[C@H](O)[C@H](O)[C@]2(C(=O)NC)C[C@H]12

IC50 [10]: 10 µM
IC50 [11]: > 1000 µM
IC50 [12]: 49 µM
SMILES: Nc1ncnc2c1ncn2[C@H]1C[C@H](O)[C@@]2(CO)C[C@H]12

IC50 [13]: 0.03 µM
SMILES: O=[N+]([O-])c1ccc(CSc2ncnc3c2ncn3[C@H]2[C@H](O)[C@H](O)[C@@]3(CO)C[C@H]23)cc1

SMILES: OC[C@]12C[C@@H]1[C@@H](n1cnc3c(NC(C4CC4)C4CC4)nc(Cl)nc31)[C@H](O)[C@@H]2O
Ki [1]: 0.084 µM
Ki [3]: > 10 µM

SMILES: CCOC(=O)[C@]12C[C@@H]1[C@@H](n1cnc3c(NC(C4CC4)C4CC4)nc(Cl)nc31)[C@H](O)[C@@H]2O
Ki [1]: 0.03 µM
Ki [2]: 0.015 µM
Ki [3]: > 10 µM

Ki (Adenosine receptor A3 [8]): > 10 µM
Ki [14]: 0.786 µM
Ki [15]: 0.042 µM
Ki (Adenosine receptor A3 [16]): 0.448 µM
Ki (Mu-type opioid receptor): 0.637 µM
Activity [17]: 0%
SMILES: CCOC(=O)[C@]12C[C@@H]1[C@@H](n1ccc3c(NC)nc(C#Cc4ccc(Cl)s4)nc31)[C@H](O)[C@@H]2O

inhibition [6]: 30%
SMILES: Nc1ncnc2c1ncn2[C@H]1[C@H](O)[C@H](O)[C@]2(CO)C[C@H]12

Efficacy (P2Y purinoceptor 1 [4]): 0%
EC50 (P2Y purinoceptor 1 [5]): 0.0084 µM
SMILES: CNc1nc(I)nc2c1ncn2[C@H]1C[C@H](OP(=O)(O)O)[C@@]2(COP(=O)(O)O)C[C@H]12
